Laboratory results published in patent US11693006B2, “Blood profiling with protease inhibitors” (Sangui Bio Pty. Ltd, priority 2016, dated 2023).
Numbered stars: 1 amine (or outer) side, 2 acyl side, 3 side chain; on linkers, the order of the positions; unused ones are H or OH. Square brackets hold non-standard residues; d marks the D form. Peptide text beside a SMILES is read from it. * marks the point of attachment. ξ: configuration not given here. Sta = CC(C)C[C@H](N)[C@@H](O)CC(=O)O; Isovaleryl = CC(C)CC(=O)*; ξR = N=C(N)NCCCC(N)C(=O)O; ξF = NC(Cc1ccccc1)C(=O)O; CO = O=C([*:1])[*:2]

Assays:
Type in all cases: cell-based, human
[1] = tested on: red blood cells from healthy individuals; assay: Cytokine release from red blood cells of healthy individuals incubated with protease inhibitors (27-plex and 21-plex Bio-Plex); settings: for effect on cytokine release from healthy red blood cells individually: individual inhibitors at Table 5 concentrations
Protocol: Blood samples from healthy volunteers were used to evaluate the effect of specific protease inhibitors on proteins from red blood cells. Whole blood was collected from healthy volunteers by venepuncture (n≥3) directly into EDTA vacutainers (k2EDTA vacutainers, BD Biosciences). The fractions of blood were collected and processed at room temperature within 4 hours of collection. For multiplex analysis (BioPlex analysis) the samples were stored at −80° C.
The red blood cells were isolated using dextran sedimentation as follows. Whole blood was centrifuged (1500 g, 10 minutes) and the upper plasma layer was discarded. The remaining cell pellet was resuspended in an equal volume of sodium chloride (0.15 M). Dextran (6% w/v in 0.15 M sodium chloride) was then added to this cellular suspension at a 1:4 ratio (dextran:cell suspension). The solution was left at room temperature for 30 minutes for red blood cell sedimentation to the bottom of the tube. The upper white blood cell rich layer was then discarded and the lower red blood cell fraction isolated. The red blood cell fraction was washed once in phosphate buffered saline (PBS, 500 g, 5 minutes) and the remaining red blood cell pellet was counted (Coulter Act Diff, Beckman Coulter). The red blood cells were then diluted to 400 million cells/mL in PBS and were incubated at 37° C. and 5% CO2 for 24 hours. Some samples were also incubated with the protease inhibitors indicated in Table 5 during the PBS incubation.
(§1) After incubation, the resulting conditioned PBS was isolated by centrifugation (500 g, 5 minutes) and then stored at −80° C. The conditioned PBS samples were then analysed on the multiplex cytokine assays. Two multiplex assays were utilised. The first was a 27-plex human cytokine panel that assays for FGF basic, Eotaxin, G-CSF, GM-CSF, IFN-γ, IL-1β, IL-1ra, IL-2, IL-4, IL-5, IL-6, IL-7, IL-8, IL-9, IL-10, IL-12(p70), IL-13, IL-15, IL-17, IP-10, MCP-1, MIP-1α, MIP-1β, PDGF-BB, RANTES, TNF-α, and VEGF, and the second was a 21-plex human cytokine panel that assays for IL-1α, IL-2Ra, IL-3, IL-12, IL-16, IL-18, CTACK, GRO-α, HGF, IFN-α2, LIF, MCP-3, M-CSF, MIF, MIG, β-NGF, SCF, SCGF-β, SDF-1α, TNF-β, TRAIL (Bio-Plex Pro 27-plex and 21-plex, Bio-Rad). The assays were performed according to manufacturer's instructions using an automated magnetic wash station (BioPlex Pro II, Bio-Rad) for the washing steps. The assays were run on the Luminex® 200™ system (Bio-Rad) and fluorescent values were collected. The calibration curve for each cytokine was analysed with 5 parametric logistic curve regression using BioPlex manager software (ver. 5.0, Bio-Rad, USA).
The fold change was determined for proteins in red blood cell-conditioned PBS at 400 million cells/mL following incubation at 37° C. for 24 hours with protease inhibitor cocktail or individual protease inhibitors from healthy participants. […] Significant differences (p<0.05) were determined using Student T-tests.
To determine the effect of a combination of protease inhibitors on the release of proteins from red blood cells, a protein profile was obtained from healthy red blood cells incubated with protease inhibitor cocktails. […] Healthy red blood cells were incubated with A8127s and the cOmplete protease inhibitor cocktail (Roche).

[2] = tested on: red blood cells from individuals having colorectal cancer; assay: Cytokine release from red blood cells of individuals having colorectal cancer incubated with protease inhibitors (27-plex); settings: colorectal cancer red blood cells vs no protease inhibitors
Protocol: Whole blood was collected from volunteers with by venepuncture directly into EDTA vacutainers (k2EDTA vacutainers, BD Biosciences). The fractions of blood were collected and processed at room temperature within 4 hours of collection. For multiplex analysis (BioPlex analysis) the samples were stored at −80° C. prior to analysis. The red blood cells were isolated using dextran sedimentation as follows. Whole blood was centrifuged (1500 g, 10 minutes) and the upper plasma layer was discarded. The remaining cell pellet was resuspended in an equal volume of sodium chloride (0.15 M). Dextran (6% w/v in 0.15 M sodium chloride) was then added to this cellular suspension at a 1:4 ratio (dextran:cell suspension). The solution was left at room temperature for 30 minutes for red blood cell sedimentation to the bottom of the tube. The upper white blood cell rich layer was discarded and the lower red blood cell fraction was isolated. The red blood cell fraction was washed once in phosphate buffered saline (PBS, 500 g, 5 minutes) and the remaining red blood cell pellet was counted (Coulter Act Diff, Beckman Coulter). The red blood cells were then diluted to 400 million cells/mL in PBS and incubated at 37° C. and 5% CO2 for 24 hours. Some samples were also incubated with the individual protease inhibitors in Table 5, a commercial protease inhibitor cocktail (cOmplete, Roche), or the A8127s protease inhibitor cocktail during the PBS incubation. The A8127s protease inhibitor cocktail comprised antipain-dihydrochloride (50 μg/mL); bestatin (40 μg/mL); E-64 (10 μg/mL); leupeptin (5 μg/mL); pepstatin (0.7 μg/mL); phosphoramidon (330 μg/mL); Pefabloc SC (1 mg/mL); EDTA-Na2 (0.5 mg/mL); and aprotinin (2 μg/mL).
as §1, with “minutes). The samples were” for “minutes) and then”, “on” for “on the multiplex cytokine assays. Two multiplex assays were utilised. The first was”, “VEGF” for “VEGF, and the second was a 21-plex human cytokine panel that assays for IL-1α, IL-2Ra, IL-3, IL-12, IL-16, IL-18, CTACK, GRO-α, HGF, IFN-α2, LIF, MCP-3, M-CSF, MIF, MIG, β-NGF, SCF, SCGF-β, SDF-1α, TNF-β, TRAIL”, “27-plex,” for “27-plex and 21-plex,”, “assay was” for “assays were”
Significant differences (p<0.05) were determined using Student T-tests. […]

red blood cells = assay: Protein profile in red blood cell lysates using cationic salt (21-plex); settings: PBS containing 100 mM LiCl vs PBS
Protocol: Red blood cells were isolated using dextran sedimentation as follows. Whole blood was centrifuged (1500 g, 10 minutes) and the upper plasma layer was discarded. The remaining cell pellet was resuspended in an equal volume of sodium chloride (0.15 M). Dextran (6% w/v in 0.15 M sodium chloride) was then added to this cellular suspension at a 1:4 ratio (dextran:cell suspension). This solution was left at room temperature for 30 minutes for red blood cell sedimentation to the bottom of the tube. After this time the upper white blood cell rich layer and the lower red blood cell fraction were separated and the white blood cells discarded. The lower red blood cell fraction was washed twice in phosphate buffered saline (PBS, 500 g, 5 minutes). The supernatant was discarded, and the red blood cell pellet resuspended in either PBS or PBS containing 100 mM LiCl.
The red blood cells were subjected to 3 freeze-thaw cycles to ensure complete cellular lysis. […] The red blood cell lysates were analysed on a 21-plex human cytokine panel that assays for IL-1α, IL-2Ra, IL-3, IL-12, IL-16, IL-18, CTACK, GRO-α, HGF, IFN-α2, LIF, MCP-3, M-CSF, MIF, MIG, β-NGF, SCF, SCGF-β, SDF-1α, TNF-β, TRAIL (Bio-Plex Pro 27-plex and 21-plex, Bio-Rad). […] The calibration curve for each cytokine was analysed with 5 parametric logistic curve regression using BioPlex manager software (ver. 5.0, Bio-Rad, USA).

[3] = healthy red blood cells, in words

## Aprotinin [Sample ID 11]
[1]
  effect on cytokine release from healthy red blood cells individually: significant effect

## CC(C)C[C@H](NP(=O)(O)O[C@@H]1O[C@@H](C)[C@H](O)[C@@H](O)[C@H]1O)C(=O)N[C@@H](Cc1c[nH]c2ccccc12)C(=O)O [Sample ID 8, Phosphoramidon]
[1]
  effect on cytokine release from healthy red blood cells individually: significant effect

## CC(C)C[C@H](NC(=O)[C@H]1O[C@@H]1C(=O)O)C(=O)NCCCCN=C(N)N [Sample ID 5, E-64]
[1]
  effect on cytokine release from healthy red blood cells individually: significant effect

## O=C([O-])CN(CCN(CC(=O)[O-])CC(=O)O)CC(=O)O.[Na+].[Na+] [Sample ID 10, EDTA-Na2]
[1]
  effect on cytokine release from healthy red blood cells individually: significant effect

## CC(C)[C@H](NC(=O)[C@H](CCCN=C(N)N)NC(=O)NC(Cc1ccccc1)C(=O)O)C(=O)NC(C=O)CCCN=C(N)N.Cl.Cl (stereo partly drawn) [Sample ID 3, Antipain-dihydrochloride] ({ξF-CO}-Arg-Val-[ξR]-aldehyde)
[1]
  effect on cytokine release from healthy red blood cells individually: significant effect
[2]
  concentration of IL-1β, IL-8, TNF-α, MIP-1α, G-CSF and IL-6: decreasing
  concentration of released IFN-γ, IL-12(p70), IL-15, IL-17, IL-13, IL-7, IP-10, PDGF-bb and IL-2: increased

## CC(C)C[C@H](NC(=O)[C@@H](O)[C@H](N)Cc1ccccc1)C(=O)O [Sample ID 4, Bestatin]
[1]; [3]
  concentration of HGF following red blood cell incubation: dramatically increased
  concentration of released IFN-a2, IL-18, MIF, TRAIL, HGF, and IL12-p40: alters
[1]
  effect on cytokine release from healthy red blood cells individually: significant effect

## CC(=O)N[C@@H](CC(C)C)C(=O)N[C@@H](CC(C)C)C(=O)N[C@H](C=O)CCCNC(=N)N [Sample ID 6, Leupeptin]
[1]
  effect on cytokine release from healthy red blood cells individually: significant effect

## [Cl-].[Li+] [lithium chloride]
Red blood cells
  level of several of the proteins in the assay (21-plex human cytokine panel): increased and/or enhanced

## CC(C)CC(=O)N[C@H](C(=O)N[C@H](C(=O)N[C@@H](CC(C)C)[C@@H](O)CC(=O)N[C@@H](C)C(=O)N[C@@H](CC(C)C)[C@@H](O)CC(=O)O)C(C)C)C(C)C [Sample ID 7, Pepstatin] (Isovaleryl-VV[Sta]A[Sta]-OH)
[1]; [3]
  concentration of HGF following red blood cell incubation: significantly decreased
  effect on concentration of IFN-a2, MIF, and HGF: opposite effect of bestatin
[1]
  effect on cytokine release from healthy red blood cells individually: significant effect

## Cl.NCCc1ccc(S(=O)(=O)F)cc1 [Sample ID 9, Pefabloc SC]
[1]
  effect on cytokine release from healthy red blood cells individually: significant effect
[2]
  concentration of IL-1β, IL-8, IL-9, TNF-α, IL-1ra, MCP-1, MIP-1α, G-CSF and IL-6: decreasing
  released concentration of IL-13 and IL-7: increased
